Measured values reported in ChEMBL document CHEMBL3885881, “DrugMatrix”.

Organism: Rattus norvegicus
Experiment: DrugMatrix - Regimen: Daily Repeat
Format: toxicity, organism-based, Sprague-Dawley
Parameters: regimen Daily Repeat, gender Male, age 6-8 weeks
Conditions: in vivo, po, route oral GAVAGE, vehicle .5 % CMC; for ABSOLUTE BASOPHIL / ABSOLUTE EOSINOPHIL / ABSOLUTE LYMPHOCYTE / ABSOLUTE MONOCYTE / ABSOLUTE SEGMENTED NEUTROPHIL / BASOPHIL / EOSINOPHIL / ERYTHROCYTE COUNT / HEMATOCRIT / HEMOGLOBIN / LEUKOCYTE COUNT / LYMPHOCYTE / MEAN CORPUSCULAR HEMOGLOBIN / MEAN CORPUSCULAR HEMOGLOBIN CONCENTRATION / MEAN CORPUSCULAR VOLUME / MONOCYTE / NEUTROPHIL / NUCLEATED RED BLOOD CELLS / PLATELET COUNT: tissue Blood; for ALANINE AMINOTRANSFERASE / ALBUMIN / ALKALINE PHOSPHATASE / ASPARTATE AMINOTRANSFERASE / BLOOD UREA NITROGEN / CARBON DIOXIDE / CHLORIDE / CHOLESTEROL / CREATINE PHOSPHOKINASE / CREATININE / GLUCOSE / LACTATE DEHYDROGENASE / LIPASE / PHOSPHORUS / POTASSIUM / SODIUM / TOTAL BILIRUBIN / TOTAL PROTEIN / URIC ACID: tissue Plasma
[1] = 0 mg/kg, 72 h, dose level Control, time 3 day
[2] = 0 mg/kg, 120 h, dose level Control, time 5 day
[3] = 500 mg/kg, 72 h, dose level Low, time 3 day

CC(C)(Sc1cc(C(C)(C)C)c(O)c(C(C)(C)C)c1)Sc1cc(C(C)(C)C)c(O)c(C(C)(C)C)c1 [PROBUCOL]
ABSOLUTE BASOPHIL [1]: 0 CELLS/uL
ABSOLUTE EOSINOPHIL [1]: 222.83 CELLS/uL
ABSOLUTE LYMPHOCYTE [1]: 14453 CELLS/uL
ABSOLUTE MONOCYTE [1]: 0 CELLS/uL
ABSOLUTE SEGMENTED NEUTROPHIL [1]: 1490.83 CELLS/uL
BASOPHIL [1]: 0%
EOSINOPHIL [1]: 1.33%
ERYTHROCYTE COUNT [1]: 5.76 x10E6/uL
HEMATOCRIT [1]: 36.52%
HEMOGLOBIN [1]: 13.45 G/DL
LEUKOCYTE COUNT [1]: 16.17 x10E3/uL
LYMPHOCYTE [1]: 89.33%
MEAN CORPUSCULAR HEMOGLOBIN [1]: 23.37 pg
MEAN CORPUSCULAR HEMOGLOBIN CONCENTRATION [1]: 36.85 G/DL
MEAN CORPUSCULAR VOLUME [1]: 63.47 fL
MONOCYTE [1]: 0%
NEUTROPHIL [1]: 9.33%
NUCLEATED RED BLOOD CELLS [1]: 0 /100WBC
PLATELET COUNT [1]: 1239.5 x10E3/uL
ALANINE AMINOTRANSFERASE [1]: 43.83 u/L
ALBUMIN [1]: 4.27 G/DL
ALKALINE PHOSPHATASE [1]: 398.83 u/L
ASPARTATE AMINOTRANSFERASE [1]: 81.17 u/L
BLOOD UREA NITROGEN [1]: 17.67 mg/dL
CARBON DIOXIDE [1]: 27.5 mmol/L
CHLORIDE [1]: 99.17 MEQ/L
CHOLESTEROL [1]: 74 mg/dL
CREATINE PHOSPHOKINASE [1]: 331.5 u/L
CREATININE [1]: 0.2 mg/dL
GLUCOSE [1]: 171.33 mg/dL
LACTATE DEHYDROGENASE [1]: 241.67 u/L
LIPASE [1]: 9.5 u/L
PHOSPHORUS [1]: 12.25 mg/dL
POTASSIUM [1]: 6.33 MEQ/L
SODIUM [1]: 141.28 MEQ/L
TOTAL BILIRUBIN [1]: 0.15 mg/dL
TOTAL PROTEIN [1]: 5.98 G/DL
URIC ACID [1]: 1.63 mg/dL
ABSOLUTE BASOPHIL [2]: 0 CELLS/uL
ABSOLUTE EOSINOPHIL [2]: 148.67 CELLS/uL
ABSOLUTE LYMPHOCYTE [2]: 16020.5 CELLS/uL
ABSOLUTE MONOCYTE [2]: 29.17 CELLS/uL
ABSOLUTE SEGMENTED NEUTROPHIL [2]: 1468.33 CELLS/uL
BASOPHIL [2]: 0%
EOSINOPHIL [2]: 1%
ERYTHROCYTE COUNT [2]: 5.78 x10E6/uL
HEMATOCRIT [2]: 35.77%
HEMOGLOBIN [2]: 13.4 G/DL
LEUKOCYTE COUNT [2]: 17.67 x10E3/uL
LYMPHOCYTE [2]: 90.5%
MEAN CORPUSCULAR HEMOGLOBIN [2]: 23.22 pg
MEAN CORPUSCULAR HEMOGLOBIN CONCENTRATION [2]: 37.47 G/DL
MEAN CORPUSCULAR VOLUME [2]: 61.92 fL
MONOCYTE [2]: 0.17%
NEUTROPHIL [2]: 8.33%
NUCLEATED RED BLOOD CELLS [2]: 0.17 /100WBC
PLATELET COUNT [2]: 1255.5 x10E3/uL
ALANINE AMINOTRANSFERASE [2]: 46.5 u/L
ALBUMIN [2]: 4.38 G/DL
ALKALINE PHOSPHATASE [2]: 336 u/L
ASPARTATE AMINOTRANSFERASE [2]: 76.5 u/L
BLOOD UREA NITROGEN [2]: 20 mg/dL
CARBON DIOXIDE [2]: 27.5 mmol/L
CHLORIDE [2]: 101 MEQ/L
CHOLESTEROL [2]: 71.33 mg/dL
CREATINE PHOSPHOKINASE [2]: 231.83 u/L
CREATININE [2]: 0.37 mg/dL
GLUCOSE [2]: 168.83 mg/dL
LACTATE DEHYDROGENASE [2]: 174 u/L
LIPASE [2]: 8.67 u/L
PHOSPHORUS [2]: 11.48 mg/dL
POTASSIUM [2]: 6.82 MEQ/L
SODIUM [2]: 143.8 MEQ/L
TOTAL BILIRUBIN [2]: 0.2 mg/dL
TOTAL PROTEIN [2]: 5.98 G/DL
URIC ACID [2]: 1.83 mg/dL
ABSOLUTE BASOPHIL [3]: 0 CELLS/uL
ABSOLUTE EOSINOPHIL [3]: 297 CELLS/uL
ABSOLUTE LYMPHOCYTE [3]: 13431.33 CELLS/uL
ABSOLUTE MONOCYTE [3]: 0 CELLS/uL
ABSOLUTE SEGMENTED NEUTROPHIL [3]: 1238.33 CELLS/uL
BASOPHIL [3]: 0%
EOSINOPHIL [3]: 2%
ERYTHROCYTE COUNT [3]: 5.69 x10E6/uL
HEMATOCRIT [3]: 35.67%
HEMOGLOBIN [3]: 13.3 G/DL
LEUKOCYTE COUNT [3]: 14.97 x10E3/uL
LYMPHOCYTE [3]: 89.67%
MEAN CORPUSCULAR HEMOGLOBIN [3]: 23.37 pg
MEAN CORPUSCULAR HEMOGLOBIN CONCENTRATION [3]: 37.3 G/DL
MEAN CORPUSCULAR VOLUME [3]: 62.7 fL
MONOCYTE [3]: 0%
NEUTROPHIL [3]: 8.33%
NUCLEATED RED BLOOD CELLS [3]: 0 /100WBC
PLATELET COUNT [3]: 1188.33 x10E3/uL
ALANINE AMINOTRANSFERASE [3]: 35.33 u/L
ALBUMIN [3]: 4.5 G/DL
ALKALINE PHOSPHATASE [3]: 363.33 u/L
ASPARTATE AMINOTRANSFERASE [3]: 79 u/L
BLOOD UREA NITROGEN [3]: 17.33 mg/dL
CARBON DIOXIDE [3]: 26.33 mmol/L
CHLORIDE [3]: 100 MEQ/L
CHOLESTEROL [3]: 67.33 mg/dL
CREATINE PHOSPHOKINASE [3]: 213 u/L
CREATININE [3]: 0.25 mg/dL
GLUCOSE [3]: 158 mg/dL
LACTATE DEHYDROGENASE [3]: 122 u/L
LIPASE [3]: 8.33 u/L
PHOSPHORUS [3]: 12.37 mg/dL
POTASSIUM [3]: 6.67 MEQ/L
SODIUM [3]: 142.2 MEQ/L
TOTAL BILIRUBIN [3]: 0.13 mg/dL
TOTAL PROTEIN [3]: 6.23 G/DL
URIC ACID [3]: 1.73 mg/dL
